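Growth conditions: 96-well plates. Treatment: test compound, 48 hours, 5 concentrations. Analysis: linear interpolation between bracketing concentrations; unreached endpoints set to highest concentration. GI50: concentration for 50% inhibition of growth.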 Calls of active or inactive are those of the source. No stated cut-off is given here; in the data, active = GI50 up to about 1.1 µM and inactive = higher.
Columns and labels:
Assay in all cases: NCI-60 cell line screen, 48 h
[1] = system: SK-OV-3
[2] = system: ACHN
[3] = system: Hs-578T
[4] = system: MDA-N
[5] = system: K562
[6] = system: A498
[7] = system: CCRF-CEM
[8] = system: SNB-75
[9] = system: MDA-MB-231
[10] = system: RXF 393
[11] = system: U-251
[12] = system: NCI-H460
[13] = system: HCT-116
[14] = system: SF-539
[15] = system: NCI-H522
[16] = system: UO-31
[17] = system: SF-295
[18] = system: HCT-15
[19] = system: HT-29
[20] = system: DMS-114

SMILES | GI50 [1] | GI50 [2] | GI50 [3] | GI50 [4] | GI50 [5] | GI50 [6] | GI50 [7] | GI50 [8] | GI50 [9] | GI50 [10] | GI50 [11] | GI50 [12] | GI50 [13] | GI50 [14] | GI50 [15] | GI50 [16] | GI50 [17] | GI50 [18] [µM] | GI50 [19] | GI50 [20]
C/C(=N\O)c1ccc(Nc2c3ccccc3nc3occc23)cc1 | 0.421 µM (active) | 0.302 µM (active) | 0.352 µM (active) | 0.0847 µM (active) | 0.174 µM (active) | 1.11 µM (active) | 0.184 µM (active) | 0.662 µM (active) | 0.9 µM (active) | 0.0352 µM (active) | 0.333 µM (active) | 0.2 µM (active) | 0.185 µM (active) | 0.169 µM (active) | 0.103 µM (active) | 3.49 µM (inactive) | 0.151 µM (active) | 0.126 | 0.199 µM (active) | 
CCCCCCCCCCCCCCCCOC[C@H](COC(c1ccccc1)(c1ccccc1)c1ccccc1)O[PH](=S)OC (stereo partly drawn) | > 100 µM (inactive) | > 100 µM (inactive) | > 100 µM (inactive) | > 100 µM (inactive) | > 100 µM (inactive) | > 100 µM (inactive) | > 100 µM (inactive) | > 100 µM (inactive) | > 100 µM (inactive) | > 100 µM (inactive) | > 100 µM (inactive) | > 100 µM (inactive) | > 100 µM (inactive) | > 100 µM (inactive) | > 100 µM (inactive) | > 100 µM (inactive) | > 100 µM (inactive) | > 100 | > 100 µM (inactive) | 
Cc1ccc(S(=O)(=O)NNC(=O)c2cc(C)c(C)cc2N)cc1 | > 100 µM (inactive) | > 100 µM (inactive) | 84.1 µM (inactive) | > 100 µM (inactive) | > 100 µM (inactive) | > 100 µM (inactive) | > 100 µM (inactive) | > 100 µM (inactive) | > 100 µM (inactive) | > 100 µM (inactive) | > 100 µM (inactive) | > 100 µM (inactive) | > 100 µM (inactive) | > 100 µM (inactive) | 47 µM (inactive) | > 100 µM (inactive) | > 100 µM (inactive) | > 100 | > 100 µM (inactive) | 
CCCNC(=S)N/N=C(\C)c1ccc(S(=O)(=O)N(C)c2ccccc2)cc1 | 45 µM (inactive) | 24.7 µM (inactive) | 3.64 µM (inactive) | > 100 µM (inactive) | > 100 µM (inactive) | 55.3 µM (inactive) | > 31.6 µM (inactive) | 17.9 µM (inactive) | 27.9 µM (inactive) | 15.3 µM (inactive) | 19.7 µM (inactive) | > 100 µM (inactive) | > 100 µM (inactive) | 5.25 µM (inactive) | > 100 µM (inactive) | > 100 µM (inactive) | 18.3 µM (inactive) | > 88.5 | > 100 µM (inactive) | 
COC1(C)OC[C@@]2(C)OC(C)C1(C)C2O[Si](C(C)C)(C(C)C)C(C)C (stereo partly drawn) | 24.4 µM (inactive) | 25.2 µM (inactive) | 22.2 µM (inactive) | 31.4 µM (inactive) | 26.5 µM (inactive) | 66.8 µM (inactive) | 25.1 µM (inactive) | 26.9 µM (inactive) | 26.4 µM (inactive) | 27 µM (inactive) | 28.5 µM (inactive) | 23.7 µM (inactive) | 29.2 µM (inactive) | 33.1 µM (inactive) | 27.9 µM (inactive) | 45 µM (inactive) | 19.9 µM (inactive) | 22.4 | 28.7 µM (inactive) | 
COC(=O)c1cnc(Cl)c([N+](=O)[O-])c1 | 19.3 µM (inactive) | 12.6 µM (inactive) | 22.4 µM (inactive) | 7.6 µM (inactive) | 2.44 µM (inactive) | 21.4 µM (inactive) | 2.11 µM (inactive) | 20.4 µM (inactive) | 16.3 µM (inactive) | 12 µM (inactive) | 2.16 µM (inactive) | 14.7 µM (inactive) | 2.77 µM (inactive) | 16.6 µM (inactive) | 1.64 µM (inactive) | 1.96 µM (inactive) | 19 µM (inactive) | 2 | 14.3 µM (inactive) | 
Clc1cc(OC23CC4CC(CC(C4)C2)C3)nc(Cl)n1 | > 100 µM (inactive) | > 100 µM (inactive) | 22.8 µM (inactive) | 50.6 µM (inactive) | 21.9 µM (inactive) | > 100 µM (inactive) | 23.6 µM (inactive) | 64.6 µM (inactive) | 33.7 µM (inactive) | 27.8 µM (inactive) | 55.8 µM (inactive) | 39.6 µM (inactive) | 46.3 µM (inactive) | > 100 µM (inactive) | 90.2 µM (inactive) | 25.4 µM (inactive) | > 100 µM (inactive) | 29.6 | 28.9 µM (inactive) | 
O=S(=O)(O)c1ccc(/N=N/c2nc(C(F)(F)F)c(C(F)(F)F)[nH]2)cc1 | > 100 µM (inactive) | > 100 µM (inactive) |  |  | 53.8 µM (inactive) |  | 45.4 µM (inactive) | 75.9 µM (inactive) |  | 18.4 µM (inactive) | 41.9 µM (inactive) | 82 µM (inactive) | 37.7 µM (inactive) | 29.6 µM (inactive) |  | 34 µM (inactive) | 65.2 µM (inactive) | 31.4 | 77.1 µM (inactive) | 16.8 µM (inactive)
COc1ccc(N2C(=O)C3c4[nH]c5ccccc5c4C4CCCCCCCCCCC4C3C2=O)cc1 (stereo not drawn) | 28.8 µM (inactive) | 29.4 µM (inactive) |  |  | 19 µM (inactive) | 9.4 µM (inactive) | 9.27 µM (inactive) | 12.7 µM (inactive) |  |  | 7.62 µM (inactive) | 4.92 µM (inactive) | 5.25 µM (inactive) | 11 µM (inactive) | 18 µM (inactive) | > 40.6 µM (inactive) | 10.7 µM (inactive) | 5.52 | 4.42 µM (inactive) | 18 µM (inactive)
COc1cc2c(cc1C1=NC(C)(C)CO1)OCO2 | > 100 µM (inactive) | > 100 µM (inactive) |  |  | > 100 µM (inactive) |  | > 100 µM (inactive) | > 100 µM (inactive) |  | > 100 µM (inactive) | > 100 µM (inactive) | > 100 µM (inactive) | > 100 µM (inactive) | > 100 µM (inactive) | > 100 µM (inactive) | > 100 µM (inactive) | > 100 µM (inactive) | > 100 | > 100 µM (inactive) | > 100 µM (inactive)
CC(C)=CC(=O)c1c(C(=O)O)nc2ccccc2[n+]1[O-] | > 100 µM (inactive) | > 100 µM (inactive) |  |  | > 100 µM (inactive) | > 100 µM (inactive) | > 100 µM (inactive) | > 100 µM (inactive) |  | > 100 µM (inactive) | > 100 µM (inactive) | > 100 µM (inactive) | > 100 µM (inactive) | > 100 µM (inactive) |  | > 100 µM (inactive) | > 100 µM (inactive) | > 100 | > 100 µM (inactive) | > 100 µM (inactive)
CC(C)(C)[Si](C)(C)OCC1OC(n2ccc(=O)[nH]c2=O)C(O[Si](C)(C)C(C)(C)C)/C1=C/C#N (stereo not drawn) | 1.79 µM (inactive) | 5.7 µM (inactive) | 5.73 µM (inactive) | 4.76 µM (inactive) | 1.76 µM (inactive) | 10 µM (inactive) | 4.23 µM (inactive) | 46.6 µM (inactive) | 8.41 µM (inactive) | 2.91 µM (inactive) | 4.21 µM (inactive) | 4.41 µM (inactive) | 3.36 µM (inactive) | 5.14 µM (inactive) | 3.67 µM (inactive) | 4.89 µM (inactive) | 0.67 µM (active) | 4.9 | 3.88 µM (inactive) | 
COc1cccc(OC)c1/C=N\N1C(=O)c2ccccc2C1=O |  | 47.4 µM (inactive) |  |  | 39.1 µM (inactive) | > 100 µM (inactive) | 33.6 µM (inactive) | 38.5 µM (inactive) |  | 26.7 µM (inactive) |  | 43.2 µM (inactive) | 33.5 µM (inactive) | 24.3 µM (inactive) |  | 55.2 µM (inactive) | 92.3 µM (inactive) | 32.1 | 35.5 µM (inactive) | 31.6 µM (inactive)
C=CC[P@@]1(=O)O[C@H](c2ccccc2)C(C)N1C(C)C (stereo partly drawn) | > 100 µM (inactive) | > 100 µM (inactive) |  |  | > 100 µM (inactive) | > 100 µM (inactive) | > 100 µM (inactive) | > 100 µM (inactive) |  | > 100 µM (inactive) | > 100 µM (inactive) | > 100 µM (inactive) |  | > 100 µM (inactive) |  | > 100 µM (inactive) | > 100 µM (inactive) | > 100 | > 100 µM (inactive) | > 100 µM (inactive)
C/C=C1/CN2CCC34C5=CC(=O)C(c6cc7c(cc6OC)N(C)C6=C(C(=O)OC)CC8(CC)CCCN9CCC67C98)=CC5=NC23CCC1C4C(=O)OC (stereo not drawn) | 16.7 µM (inactive) | 15.6 µM (inactive) | 7.21 µM (inactive) | 14 µM (inactive) | 3.48 µM (inactive) | 16.6 µM (inactive) | 2.28 µM (inactive) | 8.11 µM (inactive) | 10.2 µM (inactive) | 10.3 µM (inactive) | 15.2 µM (inactive) | 14.3 µM (inactive) | 10.9 µM (inactive) | 14.6 µM (inactive) | 11.1 µM (inactive) | 12.1 µM (inactive) | 17.7 µM (inactive) | 14.6 | 14.2 µM (inactive) | 
COc1cc(/C=C/c2ccc(OC(C)=O)cc2)cc(OC)c1OC |  | 15.5 µM (inactive) |  |  | 27.1 µM (inactive) | 23.6 µM (inactive) | 11.6 µM (inactive) |  |  | 11.1 µM (inactive) | 28 µM (inactive) | 26.1 µM (inactive) | 26.9 µM (inactive) | 18.6 µM (inactive) | 17.9 µM (inactive) | 21.1 µM (inactive) | 26.6 µM (inactive) | 27.8 | 34.9 µM (inactive) | 22.9 µM (inactive)

From ChEMBL document CHEMBL1201862, “PubChem BioAssay data set” (2004)
